Test system: ABCA-1 gene
Assay: compounds tested and found to elevate cellular expression of the ABCA-1 gene (Examples 1-6; test not named)
Type: cell-based
Procedure: Activity testing is conducted as described in those patents and patent applications referenced above, and in the Examples below, and by methods apparent to one skilled in the art.

Row | SMILES | cellular expression of the ABCA-1 gene
1 | CCCN(C(=O)Nc1ccc(Br)cc1)C(C)c1nc2cc(Cl)ccc2c(=O)n1-c1ccc(C)cc1 (stereo not shown) [3-(4-bromo-phenyl)-1-[1-(7-chloro-4-oxo-3-p-tolyl-3,4-dihydro-quinazolin-2-yl)-ethyl]-1-propyl-urea] | elevate cellular expression of the ABCA-1 gene
2 | Clc1ccc(-c2cc(-c3ccccc3)[nH]n2)cc1 [3-(4-chlorophenyl)-5-phenylpyrazole] | elevate cellular expression of the ABCA-1 gene
3 | Fc1cccc(CSc2ncc3ccccn23)c1 [3-[(3-fluorophenyl)methylthio]-4-hydroimidazolo[1,5-a]pyridine] | elevate cellular expression of the ABCA-1 gene
4 | Cc1ccc(-c2ccc3c(N)c(C#N)sc3n2)cc1 [3-amino-6-(4-methylphenyl)thiopheno[2,3-b]pyridine-2-carbonitrile] | elevate cellular expression of the ABCA-1 gene
5 | O=C(CCC1CCCC1)Nc1ccc2c(c1)CCC2 [3-cyclopentyl-N-indan-5-ylpropanamide] | elevate cellular expression of the ABCA-1 gene
6 | O=[N+]([O-])c1ccc(COc2ccc(C3SCCS3)cc2)cc1 [4-(1,3-dithiolan-2-yl)-1-[(4-nitrophenyl)methoxy]benzene] | elevate cellular expression of the ABCA-1 gene
7 | Cc1ccc(-n2ncc(N(C)n3cccc3)c(Cl)c2=O)cc1 [4-chloro-2-(4-methylphenyl)-5-(methylpyrrolylamino)-2-hydropyridazin-3-one] | elevate cellular expression of the ABCA-1 gene
8 | O=C(Nc1nccs1)c1ccc(C(F)(F)F)cc1 [4-trifluoromethylphenyl-N-(1,3-thiazol-2-yl)carboxamide] | elevate cellular expression of the ABCA-1 gene
9 | CCOc1ccc(-n2c(C(C)N3CCN(C(=O)Nc4ccc(OC)cc4OC)CC3)nc3ccccc3c2=O)cc1 (stereo not shown) [4-{1-[3-(4-ethoxyphenyl)-4-oxo-3,4-dihydro-quinazolin-2-yl]-ethyl}-piperazine-1-carboxylic acid (2,4-dimethoxy-phenyl)-amide] | elevate cellular expression of the ABCA-1 gene
10 | CCCOc1nc(-c2ccc(Cl)cc2Cl)n(S(=O)(=O)Cc2ccccc2)n1 [5-(2,4-dichlorophenyl)-1-[benzylsulfonyl]-3-propoxy-1,2,4-triazole] | elevate cellular expression of the ABCA-1 gene
11 | Cc1ccc(-c2ncc(-c3ccc(Cl)cc3)o2)cc1 [5-(4-chlorophenyl)-2-(4-methylphenyl)-1,3-oxazole] | elevate cellular expression of the ABCA-1 gene
12 | CCc1c(C(=O)NCc2ccco2)cnn1-c1nc(-c2ccc(C)cc2)cs1 [5-ethyl-1-(4-p-tolyl-thiazol-2-yl)-1H-pyrazole-4-carboxylic acid (furan-2-ylmethyl)-amide] | elevate cellular expression of the ABCA-1 gene
13 | CCc1c(C(=O)NCc2ccco2)cnn1-c1nc(-c2ccc(OC)cc2)cs1 [5-ethyl-1-[4-(4-methoxy-phenyl)-thiazol-2-yl]-1H-pyrazole-4-carboxylic acid (furan-2-ylmethyl)-amide] | elevate cellular expression of the ABCA-1 gene
14 | Cc1ccc(-c2csc(-n3ncc(C(=O)NC(C)c4ccccc4)c3C(C)C)n2)cc1 (stereo not shown) [5-isopropyl-1-(4-p-tolyl-thiazol-2-yl)-1H-pyrazole-4-carboxylic acid (1-phenyl-ethyl)-amide] | elevate cellular expression of the ABCA-1 gene
15 | Cc1ccc(-c2csc(-n3ncc(C(=O)NCCC(C)C)c3C(C)C)n2)cc1 [5-isopropyl-1-(4-p-tolyl-thiazol-2-yl)-1H-pyrazole-4-carboxylic acid (3-methyl-butyl)-amide] | elevate cellular expression of the ABCA-1 gene
16 | Cc1ccc(-c2csc(-n3ncc(C(=O)NC4CC4)c3C(C)C)n2)cc1 [5-isopropyl-1-(4-p-tolyl-thiazol-2-yl)-1H-pyrazole-4-carboxylic acid cyclopropylamide] | elevate cellular expression of the ABCA-1 gene
